# In publication PMC7956620 (Molecules, 2021):
# Positions count from the first letter of the chain named.
# Experiments:
# Assay type in all cases: cell-based
# Conditions in all cases: 100 µM chanoclavine, read-out: Inhibition Percentage (%)
# [1] = molecular target: T1, 5-HT3A receptor S136A mutant (Homo sapiens, UniProt P46098, S131A); assay: two-electrode voltage clamp, S136A mutant receptor in Xenopus oocytes
# T1 construct: host or cells: Xenopus laevis oocytes injected with in vitro transcribed mRNA
# T1 sequence (P46098 24-478 S131A): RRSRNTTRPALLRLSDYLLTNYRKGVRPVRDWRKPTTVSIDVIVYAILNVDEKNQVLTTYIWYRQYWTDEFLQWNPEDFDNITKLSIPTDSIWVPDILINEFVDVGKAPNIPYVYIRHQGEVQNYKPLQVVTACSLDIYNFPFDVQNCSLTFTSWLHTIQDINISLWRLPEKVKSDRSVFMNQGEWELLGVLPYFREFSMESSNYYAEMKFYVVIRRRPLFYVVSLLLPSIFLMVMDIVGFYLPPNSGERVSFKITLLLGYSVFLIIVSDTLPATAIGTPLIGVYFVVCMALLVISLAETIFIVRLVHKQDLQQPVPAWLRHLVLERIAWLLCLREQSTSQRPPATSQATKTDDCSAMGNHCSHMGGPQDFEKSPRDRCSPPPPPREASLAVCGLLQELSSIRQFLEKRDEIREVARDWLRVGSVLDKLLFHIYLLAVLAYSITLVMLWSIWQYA
# Description: (§1) The site-directed mutation of one or two amino acids was performed using sense and antisense primers and Pfu polymerase (QuickChange Site-Directed Mutagenesis Kit; Agilent, Santa Clara, CA, USA) and amplified by polymerase chain reaction (PCR) to increase the target domain. After removing the existing methylated cDNA using Dpn Ⅰ, the PCR products were transformed into Escherichia coli strain DH5α. The cDNA of the 5-HT3A receptor was linearized by Xho Ⅰ at the end of the multi-cloning site, followed by transcription using T7 polymerase and a transcription kit (mMESSAGE mMACHINE T7 Transcription Kit; Thermo Fisher Scientific, Waltham, MA, USA). […]
# (§2) To isolate oocytes, female Xenopus laevis were put into a container filled with ice and left for about one hour. […] When the Xenopus oocytes were ready for injection, 50 ng of mRNA was injected with a nanoliter injector (Drummond Scientific, Vernon Hills, IL, USA). […]
# (§3) The oocytes in which mRNA was expressed during the incubation period allowed for the estimation of channel or receptor properties for observing drug and ligand potential interactions using a two-electrode voltage clamp (OC-725C; Warner Instruments, Hamden, CT, USA) and Digidata (1322A; Molecular Devices, Sunnyvale, CA, USA). […] The voltage and current electrodes were filled with 3 M KCl (0.3–0.7 MΩ) and analyzed at a −80 mV holding potential. […]
# [2] = molecular target: T2, 5-HT3A receptor N138A mutant (Homo sapiens, UniProt P46098, N133A); assay: two-electrode voltage clamp, N138A mutant receptor in Xenopus oocytes
# T2 construct: host or cells: Xenopus laevis oocytes injected with in vitro transcribed mRNA
# T2 sequence (P46098 24-478 N133A): T1 sequence (P46098 24-478 S131A) with A108S, N110A
# Description: as §1, §2, §3
# [3] = molecular target: T3, 5-HT3A receptor L156A mutant (Homo sapiens, UniProt P46098, L151A); assay: two-electrode voltage clamp, L156A mutant receptor in Xenopus oocytes
# T3 construct: host or cells: Xenopus laevis oocytes injected with in vitro transcribed mRNA
# T3 sequence (P46098 24-478 L151A): T1 sequence (P46098 24-478 S131A) with A108S, L128A
# Description: as §1, §2, §3
smiles,measurement,setting,value
CN[C@@H]1Cc2c[nH]c3cccc(c23)[C@H]1/C=C(\C)CO [chanoclavine],inhibition at 100 µM,[1],68.4 ± 6.1%
same,inhibition at 100 µM,[2],-1.64 ± 6.2%
same,inhibition at 100 µM,[3],46.1 ± 6.5%
